From publication PMC7859335, “Discovery of Diaryl Ether Substituted Tetrahydrophthalazinones as TbrPDEB1 Inhibitors Following Structure-Based Virtual Screening” (Frontiers in Chemistry, 2021)
Like-named read-outs stand apart in the source and are kept apart here.

Assays:
[1] = test system: T.b. brucei Squib-427 strain; test: Antitrypanosomal phenotypic cellular assay (resazurin); type: cell-based; details: Trypanosoma brucei; in vitro, 72 h, mean ± S.E.M.
Description: (§1) The phenotypic cellular assays were conducted as previously reported by Blaazer et al. (Blaazer et al., [2018]).
For the antitrypanosomal assay, T.b. brucei Squib-427 strain (suramin-sensitive) was cultured at 37°C and 5% CO2 in HMI-9 medium supplemented with 10% fetal calf serum (FCS). Approximately 1.5 × 10^4 trypomastigotes were added to each well and parasite growth was assessed after 72 h at 37°C by adding resazurin. Viability was assessed fluorimetrically 24 h after addition of resazurin. Fluorescence was measured (excitation 550 nm, emission 590 nm) and the results were expressed as percentage reduction in viability compared to control.

[2] = Cellular cytotoxicity assay (resazurin); type: cell-based; details: human
Description: as §1
For the cellular cytotoxicity assay, MRC-5 SV2 cells, originally from a human diploid lung cell line, were cultivated in MEM supplemented with L-glutamine (20 mM), 16.5 mM sodium hydrogen carbonate and 5% FCS. For the assay, 10^4 MRC-5 cells/well were seeded onto the test plates containing the pre-diluted sample and incubated at 37°C and 5% CO2 for 72 h. Cell viability was assessed fluorimetrically 4 h after the addition of resazurin. Fluorescence was measured (excitation 550 nm, emission 590 nm) and the results were expressed as percentage reduction in cell viability compared to controls.

[3] = target: T1, TbrPDEB1 (Trypanosoma brucei, UniProt Q8WQX9); test: TbrPDEB1 catalytic domain phosphodiesterase activity assay (PDELight HTS cAMP kit); type: biochemical; details: for Ki: full dose-response, mean ± S.E.M.; for inhibition at 10 µM / TbrPDEB1 (% inh.): single point assay at 10 μM inhibitor; for inhibition at 10 µM: read-out: TbrPDEB1 (% inh.)
T1 construct: The TbrPDEB1 catalytic domain phosphodiesterase activity assays were conducted based on a method reported by Sijm et al
T1 sequence (Q8WQX9 565-918 limits assumed): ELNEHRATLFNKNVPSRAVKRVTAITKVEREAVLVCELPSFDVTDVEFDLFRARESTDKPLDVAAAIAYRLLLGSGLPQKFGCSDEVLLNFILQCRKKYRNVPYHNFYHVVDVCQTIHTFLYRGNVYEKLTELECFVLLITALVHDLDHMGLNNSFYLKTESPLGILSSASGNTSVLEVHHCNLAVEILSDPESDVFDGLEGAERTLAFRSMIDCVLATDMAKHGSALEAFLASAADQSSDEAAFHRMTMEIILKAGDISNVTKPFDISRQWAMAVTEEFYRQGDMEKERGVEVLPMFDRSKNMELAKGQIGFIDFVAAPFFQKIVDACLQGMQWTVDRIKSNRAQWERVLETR
Description: The TbrPDEB1 catalytic domain phosphodiesterase activity assays were conducted based on a method reported by Sijm et al. ([2019]) with minor adaptations (Sijm et al., [2019]). The PDELight™ HTS cAMP phosphodiesterase Kit (Lonza, Walkersville, USA) was performed at 25°C in non-binding, low volume 384-well plates (Corning, Kennebunk, ME, USA). […] Single concentration measurements were made at 10 μM inhibitor concentration (triplo measurements/assay, n = 2). Dose-response curves were made in the range 100 μM−10 pM (triplo measurements/assay, n = 3). Compounds were diluted in DMSO (final in-test concentration 1%). Inhibitor dilutions (2.5 μL) were transferred to the 384-well plates, 2.5 μL of PDE in stimulation buffer was added and mixed, 5 μL of cAMP (at 2 × Km up to 20 μM) added and the assay mixture was incubated for 20 min at 300 rpm. […] Then, 5 μL of Lonza Detection reagent (diluted to 80% with reaction buffer) was added and the reaction incubated for 10 min at 300 rpm. Luminescence was read with a Victor3 luminometer using a 0.1 s/well program.
The Ki values of the inhibitors analyzed are represented as the mean of at least three independent experiments with the associated standard error of the mean (S.E.M.).

[4] = test system: MRC-5 SV2 cells; set-up: method as in Blaazer et al. (2018); details: ref Blaazer et al. (2018); cited from earlier work
[5] = target: T1, TbrPDEB1; details: ref Blaazer et al. (2018); cited from earlier work
[6] = test system: hPDE4B1; set-up: method as in Blaazer et al. (2018); details: ref Blaazer et al. (2018), cited from earlier work
[7] = test system: T.b. brucei Squib-427 strain; set-up: method as in Blaazer et al. (2018); details: in vitro; ref Blaazer et al. (2018); cited from earlier work
[8] = test system: TbrPDEB2; set-up: method as in earlier work; details: ref De Koning et al., 2012, Orrling et al., Veerman et al., 2016; cited from earlier work

| Compound | Ki [3] [µM] | inhibition at 10 µM [3] [%] | IC50 [1] [µM] | CC50 at 72 h [2] [µM] | other results |
| --- | --- | --- | --- | --- | --- |
| Cc1ccc(C(=O)Nc2ccc(S(=O)(=O)O)c3cc(S(=O)(=O)O)cc(S(=O)(=O)O)c23)cc1NC(=O)c1cccc(NC(=O)Nc2cccc(C(=O)Nc3cc(C(=O)Nc4ccc(S(=O)(=O)O)c5cc(S(=O)(=O)O)cc(S(=O)(=O)O)c45)ccc3C)c2)c1 [suramin, reference compound] | – | – | 0.04 ± 0.02 | – | – |
| COC(=O)c1cnc(Oc2cc(C3=NN(C(C)C)C(=O)[C@@H]4CC=CC[C@H]34)ccc2OC)cn1 (relative stereo) [2d, Methyl 5-(5-(cis-3-isopropyl-4-oxo-3,4,4a,5,8,8a-hexahydrophthalazin-1-yl)-2-methoxyphenoxy)pyrazine-2-carboxylate] | 0.6 ± 0.2 | ~50 | 16 ± 10 | > 64 | – |
| COc1ccc(C2=NN(C(C)C)C(=O)C3CC=CCC23)cc1-c1ccc(C(=O)NCC(N)=O)cc1 (stereo not drawn) [compound 1] | – | – | – | – | CC50 [4]: 35 µM; Ki [5]: 0.1 µM; selectivity for TbrPDEB1 over hPDE4 ([6]; from Ki values): more than 10 fold; Ki ([6]; hPDE4B1 in Figure 1, read-out: hPDE4 Ki): 1.9 µM; IC50 [7]: 6.3 µM |
| COc1ccc(C2=NN(C(C)C)C(=O)[C@H]3CC=CC[C@@H]23)cc1Oc1ccc(Cn2ccnc2)cn1 (relative stereo) [2h, cis-4-(3-((5-((1H-Imidazol-1-yl)methyl)pyridin-2-yl)oxy)-4-methoxyphenyl)-2-isopropyl-4a,5,8,8a-tetrahydrophthalazin-1(2H)-one] | 1.3 ± 0.2 | ~50 | 7.9 ± 8 | 31 ± 8 | – |
| COc1ccc(C2=NN(C3CCCCCC3)C(=O)[C@@H]3CC=CC[C@H]23)cc1OCCCCOc1ccc(-c2nn[nH]n2)cc1 [NPD-001] | – | – | – | – | IC50 [8]: 0.0124 µM |
| CCCCNC(=O)c1ccc(Oc2cc(C3=NN(C(C)C)C(=O)[C@@H]4CC=CC[C@H]34)ccc2OC)nc1 (relative stereo) [3r, N-Butyl-6-(5-(cis-3-isopropyl-4-oxo-3,4,4a,5,8,8a-hexahydrophthalazin-1-yl)-2-methoxyphenoxy)nicotinamide] | – | – | – | – | TbrPDEB1 (% inh.) [3]: No inhibition |
| COc1ccc(C2=NN(C(C)C)C(=O)[C@@H]3CC=CC[C@H]23)cc1Oc1ccc(C(=O)NCc2ccco2)cn1 (relative stereo) [3v, N-(Furan-2-ylmethyl)-6-(5-(cis-3-isopropyl-4-oxo-3,4,4a,5,8,8a-hexahydrophthalazin-1-yl)-2-methoxyphenoxy)nicotinamide] | – | – | – | – | TbrPDEB1 (% inh.) [3]: No inhibition |

The next lines start with results.

| Ki [3] [µM] | inhibition at 10 µM [3] [%] | Compound | IC50 [1] [µM] | CC50 at 72 h [2] [µM] | other results |
| --- | --- | --- | --- | --- | --- |
| 1 ± 0.2 | > 50 | COc1ccc(C2=NN(C(C)C)C(=O)[C@@H]3CC=CC[C@H]23)cc1Oc1cccc(C(=O)NCc2ccco2)n1 (relative stereo) [3w, N-(Furan-2-ylmethyl)-6-(5-(cis-3-isopropyl-4-oxo-3,4,4a,5,8,8a-hexahydrophthalazin-1-yl)-2-methoxyphenoxy)picolinamide] | 25 ± 20 | > 64 | – |
| 0.8 ± 0.2 | ≥ 50 | COc1ccc(C2=NN(C(C)C)C(=O)[C@@H]3CC=CC[C@H]23)cc1Oc1cccc(C(N)=O)n1 (relative stereo) [3l, 6-(5-(cis-3-Isopropyl-4-oxo-3,4,4a,5,8,8a-hexahydrophthalazin-1-yl)-2-methoxyphenoxy)picolinamide] | 16 ± 10 | > 64 | – |
| 0.8 ± 0.2 | ≥ 50 | COC(=O)c1ccc(Oc2cc(C3=NN(C(C)C)C(=O)[C@@H]4CC=CC[C@H]34)ccc2OC)nc1 (relative stereo) [3c, Methyl 6-(5-(cis-3-isopropyl-4-oxo-3,4,4a,5,8,8a-hexahydrophthalazin-1-yl)-2-methoxyphenoxy)nicotinate] | 7.9 ± 8 | > 64 | – |
| 1.3 ± 0.3 | > 50 | CCCCNC(=O)c1cccc(Oc2cc(C3=NN(C(C)C)C(=O)[C@@H]4CC=CC[C@H]34)ccc2OC)n1 (relative stereo) [3s, N-Butyl-6-(5-(cis-3-isopropyl-4-oxo-3,4,4a,5,8,8a-hexahydrophthalazin-1-yl)-2-methoxyphenoxy)picolinamide] | > 64 | > 64 | – |
